The source of these data is US10214544B2, “Imidazopyridazine and imidazothiadiazole compounds” (Universite de Montreal, priority 2015, dated 2019).

Where only a bound is given, the exact number is not on record here.

Chain of PAR4 (Q96RI0 18-385): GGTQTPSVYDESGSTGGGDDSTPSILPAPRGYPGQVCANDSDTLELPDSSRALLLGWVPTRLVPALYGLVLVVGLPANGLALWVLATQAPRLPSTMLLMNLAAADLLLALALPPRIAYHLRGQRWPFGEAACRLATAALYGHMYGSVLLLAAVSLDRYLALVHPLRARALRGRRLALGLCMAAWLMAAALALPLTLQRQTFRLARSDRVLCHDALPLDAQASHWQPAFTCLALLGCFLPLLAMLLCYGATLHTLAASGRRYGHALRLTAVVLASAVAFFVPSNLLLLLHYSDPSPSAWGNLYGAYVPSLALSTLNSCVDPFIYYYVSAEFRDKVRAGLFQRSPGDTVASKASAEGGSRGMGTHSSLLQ

The assay addresses PAR4 (Homo sapiens (Human), UniProt Q96RI0). Put plainly: FLIPR assay in PAR4-expressing HEK293 cells (PAR4 antagonist activity). It is filed as cell-based. Conditions: inhibition of H-Ala-Phe(4-F)-Pro-Gly-Trp-Leu-Val-Lys-Asn-Gly-NH2-induced intracellular calcium mobilization. The source says:
The FLIPR assay is an exemplary in vitro assay for measuring the activity of the PAR4 antagonists of the present invention. In this assay, intracellular calcium mobilization is induced in PAR4 expressing cells by a PAR4 agonist and calcium mobilization is monitored. See, e.g., Example A.
HEK293 cells stably expressing PAR4 were generated by a standard method of transfection of human PAR4 (F2R23) cDNA expression vector and selected based on PAR4 protein expression or mRNA expression. […] These cells also express endogenous PAR1 and can elicit calcium signal upon stimulation with PAR1 agonist peptide. Therefore, the same cells were also used to determine selectivity against PAR1 and agonist activity for both receptors. Cells from HEK293 PAR4 Clone 1.2A (BMS Arctic ID 383940) were propagated and used for calcium mobilization studies.
FLIPR-based calcium mobilization assay in HEK293 cells was used to measure PAR4 antagonism, agonism, and selectivity against PAR1. The activity of the PAR4 antagonists of the present invention were tested in PAR4 expressing cells by monitoring H-Ala-Phe(4-F)-[…]NH2-induced intracellular calcium mobilization. Counter screens for agonist activity and PAR1 antagonist activity were also performed. Briefly, PAR1/PAR4-expressing HEK293 cells were grown in DMEM (Life Technology, Grand Island, N.Y.) containing 10% heat-inactivated FBS, 1% Penicillin-Streptomycin, 10 μg/mL blasticidin, and 100 μg/mL Zeocin at 37° C. with 5% CO2. Cells were plated overnight prior to the experiment in a black 384-well Purecoat Amine clear bottom plate (Becton Dickinson Biosciences, San Jose, Calif.) at 10,000 cells/well in 30 μL growth medium and incubated in a humidified chamber at 37° C. with 5% CO2 overnight. Prior to compound addition, the cell medium was replaced with […] of 1× calcium and magnesium-containing Hank's Balanced Saline Solution (HBSS) (with 20 mM HEPES) and 1:1000 diluted fluorescent calcium indicator (Codex Biosolutions, Gaithersburg, Md.). After a 30 minute incubation period at 37° C. and a further 30 minute incubation and equilibration period at room temperature, 20 μL test compound (diluted in 1× HBSS buffer) was added at various concentrations at 0.17% dimethyl sulfoxide (DMSO) final concentration. Changes in fluorescence intensity were measured using a Functional Drug Screening System (FDSS, Hamamatsu, Japan) to determine agonist activities. The cells were then incubated for 30 minutes at room temperature followed by addition of 20 μL of agonist peptide for antagonist activity measurement. […] Compound potency was derived from 11-point concentration-response curves.
The following Table sets out results obtained employing various compounds of the invention tested in the FLIPR assay. As indicated above, the FLIPR assay, an in vitro assay, measures the PAR4 antagonist activity of compounds tested as described in Example A.
With `COc1cc(OCc2ccc3c(c2)N(C(=O)c2ccccc2C)CC3)c2cc(-c3cn4nc(OC)sc4n3)oc2c1` [Example 101], the EC50 came to 3.1 nM. The figure for `COc1cc(OCc2ccc3c(c2)N(C(=O)c2cccc(F)c2)CC3)c2cc(-c3cn4nc(OC)sc4n3)oc2c1` [Example 102] is 4.1 nM; for `COc1cc(OCc2ccc3c(c2)N(C(=O)c2ccccc2OC)CC3)c2cc(-c3cn4nc(OC)sc4n3)oc2c1` [Example 103] it is 4.5 nM. On to `COc1cc(OCc2ccc3c(c2)N(C(=O)c2ccccc2F)CC3)c2cc(-c3cn4nc(OC)sc4n3)oc2c1` [Example 104], for which the EC50 turned out to be 2.2 nM. Turning to `COc1cc(OCc2ccc3c(c2)N(C(=O)c2ccc(C)cc2)CC3)c2cc(-c3cn4nc(OC)sc4n3)oc2c1` [Example 105], the EC50 was 3.4 nM. In the case of `COc1cc(OCc2ccc3c(c2)N(C(=O)c2ccc(OC)nc2)CC3)c2cc(-c3cn4nc(OC)sc4n3)oc2c1` [Example 106], the EC50 is 1.5 nM.

As for `COc1cc(OCc2ccc3c(c2)N(C(C)=O)CC3)c2cc(-c3cn4nc(OC)sc4n3)oc2c1` [Example 107], the EC50 came to 26 nM. Turning to `COc1cc(OCc2ccc3c(c2)N(C(=O)c2csc(C(F)(F)F)n2)CC3)c2cc(-c3cn4nc(OC)sc4n3)oc2c1` [Example 110], the EC50 turned out to be 0.52 nM.

In the case of `COc1cc(OCc2ccc3c(c2)N(C(=O)c2cc(C)cc(C(F)(F)F)c2)CC3)c2cc(-c3cn4nc(OC)sc4n3)oc2c1` [Example 111], the EC50 worked out at 6 nM. As to `COc1cc(OCc2ccc3c(c2)N(C(=O)c2csc(-c4ccccc4)n2)CC3)c2cc(-c3cn4nc(OC)sc4n3)oc2c1` [Example 112], the EC50 was determined as 0.55 nM. As for `COc1cc(OCc2cccc3c2CCN3)c2cc(-c3cn4nc(OC)sc4n3)oc2c1` [Example 114, 6-(4-(Indolin-4-ylmethoxy)-6-methoxybenzofuran-2-yl)-2-methoxyimidazo[2,1-b][1,3,4]thiadiazole], the EC50 is 37 nM. With `COc1cc(OCc2cccc3c2CCN3C(=O)c2ccccc2)c2cc(-c3cn4nc(OC)sc4n3)oc2c1` [Example 115, (4-(((6-Methoxy-2-(2-methoxyimidazo[2,1-b][1,3,4]thiadiazol-6-yl)benzofuran-4-yl)oxy)methyl)indolin-1-yl)(phenyl)methanone] the figure was 96 nM; with `COc1cc(OCc2cccc3c2CCN3C(=O)c2ccc(F)cc2)c2cc(-c3cn4nc(OC)sc4n3)oc2c1` [Example 116], 140 nM.

Take `COc1cc(OCc2cccc3c2CCN3C(C)=O)c2cc(-c3cn4nc(OC)sc4n3)oc2c1` [Example 117]: the EC50 was over 3300 nM. With `COc1cc(OCc2cccc3c2CCN3C(=O)c2csc(C(F)(F)F)n2)c2cc(-c3cn4nc(OC)sc4n3)oc2c1` [Example 118] the figure was 16 nM. With `COc1cc(OCc2cccc3c2CCN3C(=O)c2csc(-c3ccccc3)n2)c2cc(-c3cn4nc(OC)sc4n3)oc2c1` [Example 119] the figure was 1700 nM; with `COc1cc(OCc2cccc3c2CCN3C(=O)c2ccccc2F)c2cc(-c3cn4nc(OC)sc4n3)oc2c1` [Example 120], 4.2 nM. The figure for `COc1cc(OCc2cccc3c2CCN3C(=O)c2cccc(F)c2)c2cc(-c3cn4nc(OC)sc4n3)oc2c1` [Example 121] is 140 nM; for `COc1cc(OCc2cccc3c2CCN3C(=O)c2ccccc2C)c2cc(-c3cn4nc(OC)sc4n3)oc2c1` [Example 122] it is 5 nM. On to `COc1cc(OCc2cccc3c2CCN3C(=O)c2ccc(C)cc2)c2cc(-c3cn4nc(OC)sc4n3)oc2c1` [Example 123], for which the EC50 is 5 nM. Turning to `COc1cc(OCc2cccc3c2CCN3C(=O)c2ccccc2OC)c2cc(-c3cn4nc(OC)sc4n3)oc2c1` [Example 124], the EC50 is 190 nM. With `COc1cc(OCc2cccc3c2CCN3C(=O)c2cc(C)cc(C(F)(F)F)c2)c2cc(-c3cn4nc(OC)sc4n3)oc2c1` [Example 125], the EC50 came out at 3.9 nM. With `COc1cc(OCc2cccc3c2CCN3C(=O)c2cncnc2)c2cc(-c3cn4nc(OC)sc4n3)oc2c1` [Example 126] the figure was 260 nM; with `COc1cc(OCc2cccc3c2CCN3C(=O)c2ccc(OC)nc2)c2cc(-c3cn4nc(OC)sc4n3)oc2c1` [Example 127], 2.9 nM; with `COc1cc(OCc2cccc3c2CCN3C(=O)c2ccnnc2)c2cc(-c3cn4nc(OC)sc4n3)oc2c1` [Example 128], over 3300 nM. For `COc1cc(OCc2cccc3c2CCN3C(=O)c2sc(C)nc2C)c2cc(-c3cn4nc(OC)sc4n3)oc2c1` [Example 129], the EC50 is 4.2 nM. In the case of `COc1cc(OCc2cccc3c2CCN3C(=O)c2cc(OC(F)F)cc(C(F)(F)F)c2)c2cc(-c3cn4nc(OC)sc4n3)oc2c1` [Example 130], the EC50 amounted to 5.2 nM. As to `COc1cc(OCc2cccc(NC(=O)c3cccn3C)c2)c2cc(-c3cn4nc(OC)sc4n3)oc2c1` [Example 132], the EC50 turned out to be 3.8 nM. Take `COc1cc(OCc2cccc(NC(=O)c3cnccn3)c2)c2cc(-c3cn4nc(OC)sc4n3)oc2c1` [Example 133]: the EC50 stood at 2.7 nM. `COc1cc(OCc2cccc(NC(=O)c3ccco3)c2)c2cc(-c3cn4nc(OC)sc4n3)oc2c1` [Example 134]: the EC50 was 5 nM. As to `COc1cc(OCc2cccc(NC(=O)Cc3ccccc3)c2)c2cc(-c3cn4nc(OC)sc4n3)oc2c1` [Example 135], the EC50 came to 5 nM.

For the compound `COc1cc(OCc2cccc(NC(=O)C(C)C)c2)c2cc(-c3cn4nc(OC)sc4n3)oc2c1` [Example 136], the EC50 was determined as 3.9 nM. In the case of `COc1cc(OC)cc(C(=O)Nc2cccc(COc3cc(OC)cc4oc(-c5cn6nc(OC)sc6n5)cc34)c2)c1` [Example 137], the EC50 came to 3.4 nM. With `COc1cc(OCc2cccc(NC(=O)CC3CCCC3)c2)c2cc(-c3cn4nc(OC)sc4n3)oc2c1` [Example 138], the EC50 came out at 2.5 nM. Turning to `COc1cc(OCc2cccc(NC(=O)c3ccccn3)c2)c2cc(-c3cn4nc(OC)sc4n3)oc2c1` [Example 139], the EC50 turned out to be 2.7 nM.

With `COc1cc(OCc2cccc(NC(=O)c3cc(C(F)(F)F)ccc3F)c2)c2cc(-c3cn4nc(OC)sc4n3)oc2c1` [Example 140], the EC50 came to 1.5 nM. With `COc1cc(OCc2cccc(NC(=O)c3ccc(F)cc3C(F)(F)F)c2)c2cc(-c3cn4nc(OC)sc4n3)oc2c1` [Example 141], the EC50 is 1.9 nM. Turning to `COc1cc(OCc2cccc(NC(=O)c3cc(F)cc(C(F)(F)F)c3)c2)c2cc(-c3cn4nc(OC)sc4n3)oc2c1` [Example 142], the EC50 was found to be 1.3 nM. For `COc1cc(OCc2cccc(NC(=O)c3c(F)cccc3F)c2)c2cc(-c3cn4nc(OC)sc4n3)oc2c1` [Example 143], the EC50 amounted to 5.9 nM. The figure for `COc1cc(OCc2cccc(NC(=O)c3cccc(N(C)C)c3)c2)c2cc(-c3cn4nc(OC)sc4n3)oc2c1` [Example 144] is 3.8 nM; for `COc1cc(OCc2cccc(NC(=O)C3CCCC3)c2)c2cc(-c3cn4nc(OC)sc4n3)oc2c1` [Example 145] it is 6.8 nM. Regarding `COc1cc(OCc2cccc(NC(=O)CC3CCCCC3)c2)c2cc(-c3cn4nc(OC)sc4n3)oc2c1` [Example 146], the EC50 came out at 7.5 nM. As for `COc1cc(OCc2cccc(NC(=O)c3c(F)cccc3C(F)(F)F)c2)c2cc(-c3cn4nc(OC)sc4n3)oc2c1` [Example 147], the EC50 turned out to be 1.6 nM. As for `COc1cc(OCc2cccc(NC(=O)c3cccnc3)c2)c2cc(-c3cn4nc(OC)sc4n3)oc2c1` [Example 148], the EC50 was 6.8 nM. The figure for `COc1cc(OCc2cccc(NC(=O)c3cccc(C(F)(F)F)c3)c2)c2cc(-c3cn4nc(OC)sc4n3)oc2c1` [Example 149] is 2 nM; for `COc1cc(OCc2cccc(NC(=O)C3CCCCC3)c2)c2cc(-c3cn4nc(OC)sc4n3)oc2c1` [Example 150] it is 2.3 nM; for `COc1cc(OCc2cccc(NC(=O)c3cccc(Cl)c3F)c2)c2cc(-c3cn4nc(OC)sc4n3)oc2c1` [Example 151] it is 3.4 nM. With `COc1cc(OCc2cccc(NC(=O)c3ccc(F)cc3F)c2)c2cc(-c3cn4nc(OC)sc4n3)oc2c1` [Example 152] the figure was 1.3 nM; with `COc1cc(OCc2cccc(NC(=O)c3ccc(C(F)(F)F)cc3)c2)c2cc(-c3cn4nc(OC)sc4n3)oc2c1` [Example 153], 0.99 nM.
